Our source for the IC50 values is patent publication US20240317735A1, “HYDROISOQUINOLINE OR HYDRONAPHTHYRIDINE COMPOUNDS FOR THE TREATMENT OF AUTOIMMUNE DISEASE” (Hoffmann-La Roche Inc., priority 2020, published 2024).

The target of the experiment is T1, human TLR7 (Homo sapiens, UniProt Q9NYK1).
T1 construct: host or cells: HEK293 (HEK-Blue hTLR7)
T1 sequence (Q9NYK1 27-1049): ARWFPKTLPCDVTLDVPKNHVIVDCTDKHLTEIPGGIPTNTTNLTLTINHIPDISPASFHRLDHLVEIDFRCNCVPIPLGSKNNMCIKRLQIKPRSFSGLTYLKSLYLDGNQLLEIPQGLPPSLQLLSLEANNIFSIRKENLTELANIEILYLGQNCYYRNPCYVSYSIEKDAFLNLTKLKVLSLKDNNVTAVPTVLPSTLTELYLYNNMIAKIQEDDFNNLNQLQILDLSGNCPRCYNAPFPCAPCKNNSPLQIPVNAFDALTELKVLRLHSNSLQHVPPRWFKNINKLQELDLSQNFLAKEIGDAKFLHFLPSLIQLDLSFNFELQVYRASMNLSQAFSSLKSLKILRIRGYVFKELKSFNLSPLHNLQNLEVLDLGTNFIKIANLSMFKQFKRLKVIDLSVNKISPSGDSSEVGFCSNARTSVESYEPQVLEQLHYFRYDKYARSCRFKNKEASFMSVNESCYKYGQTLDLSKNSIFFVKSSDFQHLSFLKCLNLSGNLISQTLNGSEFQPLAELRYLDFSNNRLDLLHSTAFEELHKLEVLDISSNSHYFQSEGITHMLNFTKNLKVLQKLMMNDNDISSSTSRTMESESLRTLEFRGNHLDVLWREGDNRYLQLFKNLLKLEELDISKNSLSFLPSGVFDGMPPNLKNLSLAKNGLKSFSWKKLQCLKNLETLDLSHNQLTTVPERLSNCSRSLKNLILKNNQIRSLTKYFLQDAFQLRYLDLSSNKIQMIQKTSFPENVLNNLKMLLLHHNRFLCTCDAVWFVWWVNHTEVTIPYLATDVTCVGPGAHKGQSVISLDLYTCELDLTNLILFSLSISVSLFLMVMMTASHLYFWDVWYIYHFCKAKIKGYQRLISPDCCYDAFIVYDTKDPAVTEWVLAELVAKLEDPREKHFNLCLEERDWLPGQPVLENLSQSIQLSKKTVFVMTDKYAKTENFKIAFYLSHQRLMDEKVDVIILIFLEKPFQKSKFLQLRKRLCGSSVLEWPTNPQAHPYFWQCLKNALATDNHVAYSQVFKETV
In words: HEK293-Blue-hTLR-7 cells assay (SEAP reporter, R848 stimulation). Type of experiment: cell-based. The following applies: HEK293-Blue-hTLR7 cells, R848, 20 hrs; read-out: HEK/hTLR7 IC50. The procedure: The following tests were carried out in order to determine the activity of the compounds of formula (I) and (Ia) in HEK293-Blue-hTLR-7/8/9 cells assay.
A stable HEK293-Blue-hTLR-7 cell line was purchased from InvivoGen (Cat. #: hkb-htlr7, San Diego, California, USA). These cells were originally designed for studying the stimulation of human TLR7 by monitoring the activation of NF-κB. A SEAP (secreted embryonic alkaline phosphatase) reporter gene was placed under the control of the IFN-β minimal promoter fused to five NF-κB and AP-1-binding sites. The SEAP was induced by activating NF-κB and AP-1 via stimulating HEK-Blue hTLR7 cells with TLR7 ligands. Therefore the reporter expression w % as declined by TLR7 antagonist under the stimulation of a ligand, such as R848 (Resiquimod), for incubation of 20 hrs. The cell culture supernatant SEAP reporter activity was determined using QUANTI-Blue™ kit (Cat. #: rep-qb1, Invivogen, San Diego, Ca, USA) at a wavelength of 640 nm, a detection medium that turns purple or blue in the presence of alkaline phosphatase.
HEK293-Blue-hTLR7 cells were incubated at a density of 250,000˜450,000 cells/mL in a volume of 170 μL in a 96-well plate in Dulbecco's Modified Eagle's medium (DMEM) containing 4.5 g/L glucose, 50 U/mL penicillin, […], […] Normocin, 2 mM L-glutamine, 10% (v/v) heat-inactivated fetal bovine serum with addition of 20 μL test compound in a serial dilution in the presence of final DMSO at 1% and 10 μL of 20 uM R848 in above DMEM, perform incubation under 37° C. in a C02 incubator for 20 hrs. Then 20 μL of the supernatant from each well was incubated with 180 μL Quanti-blue substrate solution at 37° C. for 2 hrs and the absorbance was read at 620˜655 nm using a spectrophotometer. The signaling pathway that TLR7 activation leads to downstream NF-κB activation has been widely accepted, and therefore similar reporter assay was modified for evaluating TLR7 antagonist.
Turning to `C[C@H]1CN(c2ccnc3c2cnn3C)Cc2ccc(OC[C@H]3CNCCN3C)cc21` [Example 43, (4R)-4-methyl-2-(1-methylpyrazolo[3,4-b]pyridin-4-yl)-6-[[(2R)-1-methylpiperazin-2-yl]methoxy]-3,4-dihydro-1H-isoquinoline], the IC50 stood at 8 nM.

As to `C[C@H]1CN(c2ccnc3c2cnn3C)Cc2ccc(OC[C@@H]3CNCCN3C)cc21` [Example 44, (4R)-4-methyl-2-(1-methylpyrazolo[3,4-b]pyridin-4-yl)-6-[[(2S)-1-methylpiperazin-2-yl]methoxy]-3,4-dihydro-1H-isoquinoline], the IC50 came to 15 nM.

For the molecule `C[C@H]1CN(c2ccnc3c2cnn3C)Cc2ccc(OC[C@@H]3CNCCN3C=O)cc21` [Example 45, (2S)-2-[[(4R)-4-methyl-2-(1-methylpyrazolo[3,4-b]pyridin-4-yl)-3,4-dihydro-1H-isoquinolin-6-yl]oxymethyl]piperazine-1-carbaldehyde], the IC50 amounted to 12 nM.

Regarding `C[C@H]1CN(c2ccnc3c2cnn3C)Cc2ccc(N3C[C@@H](N)[C@H](O)C3)cc21` [Example 46, trans-4-amino-1-[(4R)-4-methyl-2-(1-methylpyrazolo[3,4-b]pyridin-4-yl)-3,4-dihydro-1H-isoquinolin-6-yl]pyrrolidin-3-ol], the IC50 is 10 nM.

Consider `Cc1cc(N2Cc3ccc(N4C[C@@H](N)[C@H](O)C4)cc3[C@@H](C)C2)c2cnn(C)c2n1` [Example 47, trans-4-amino-1-[(4R)-2-(1,6-dimethylpyrazolo[3,4-b]pyridin-4-yl)-4-methyl-3,4-dihydro-1H-isoquinolin-6-yl]pyrrolidin-3-ol], for which the IC50 came out at 13 nM.

With `Cc1cc(N2Cc3ccc(N4CC5(CNCCO5)C4)cc3[C@@H](C)C2)c2cnn(C)c2n1` [Example 48, 2-[(4R)-2-(1,6-dimethylpyrazolo[3,4-b]pyridin-4-yl)-4-methyl-3,4-dihydro-1H-isoquinolin-6-yl]-5-oxa-2,8-diazaspiro[3.5]nonane], the IC50 was determined as 13 nM.

As to `C[C@H]1CN(c2ccnc3c2cnn3C)Cc2ccc(N3CCNC(CO)C3)cc21` (stereo partly drawn) [Example 49, [4-[(4R)-4-methyl-2-(1-methylpyrazolo[3,4-b]pyridin-4-yl)-3,4-dihydro-1H-isoquinolin-6-yl]piperazin-2-yl]methanol], the IC50 was 5 nM.

`C[C@H]1CN(c2ccnc3c2cnn3C)Cc2ccc(N3CCN[C@@H](CO)C3)cc21` [Example 50, [(2R)-4-[(4R)-4-methyl-2-(1-methylpyrazolo[3,4-b]pyridin-4-yl)-3,4-dihydro-1H-isoquinolin-6-yl]piperazin-2-yl]methanol]: the IC50 is 10 nM.

For the molecule `C[C@H]1CN(c2ccnc3c2cnn3C)Cc2ccc(N3CCN[C@H](CO)C3)cc21` [Example 51, [(2S)-4-[(4R)-4-methyl-2-(1-methylpyrazolo[3,4-b]pyridin-4-yl)-3,4-dihydro-1H-isoquinolin-6-yl]piperazin-2-yl]methanol], the IC50 was found to be 9 nM.

Take `C[C@H]1CN(c2ccnc3c2cnn3C)Cc2ccc(N3CC4(CCNC4)CC3=O)cc21` (stereo partly drawn) [Example 52, 2-[(4R)-4-methyl-2-(1-methylpyrazolo[3,4-b]pyridin-4-yl)-3,4-dihydro-1H-isoquinolin-6-yl]-2,7-diazaspiro[4.4]nonan-3-one]: the IC50 stood at 9 nM.

As to `Cc1cc(N2Cc3ccc(N4CCC(N)CC4)nc3[C@@H](C)C2)c2cnn(C)c2n1` [Example 58, 1-[(8S)-6-(1,6-dimethylpyrazolo[3,4-b]pyridin-4-yl)-8-methyl-7,8-dihydro-5H-1,6-naphthyridin-2-yl]piperidin-4-amine], the IC50 was 2 nM.

Take `Cc1cc(N2Cc3ccc(N4CCC(C)(N)CC4)nc3[C@@H](C)C2)c2cnn(C)c2n1` [Example 59, 4-methyl-1-[(8S)-6-(1,6-dimethylpyrazolo[3,4-b]pyridin-4-yl)-8-methyl-7,8-dihydro-5H-1,6-naphthyridin-2-yl]piperidin-4-amine]: the IC50 was 2 nM.

`Cc1cc(N2Cc3ccc(N4CCC(N(C)C)CC4)nc3[C@@H](C)C2)c2cnn(C)c2n1` [Example 60, N,N-dimethyl-1-[(8S)-6-(1,6-dimethylpyrazolo[3,4-b]pyridin-4-yl)-8-methyl-7,8-dihydro-5H-1,6-naphthyridin-2-yl]piperidin-4-amine]: the IC50 stood at 3 nM.

`Cc1cc(N2Cc3ccc(N4CCC(O)(CN(C)C)CC4)nc3[C@@H](C)C2)c2cnn(C)c2n1` [Example 61, 4-[(dimethylamino)methyl]-1-[(8S)-6-(1,6-dimethylpyrazolo[3,4-b]pyridin-4-yl)-8-methyl-7,8-dihydro-5H-1,6-naphthyridin-2-yl]piperidin-4-ol]: the IC50 turned out to be 3 nM.

As for `C[C@H]1CN(c2ccnc3c2cnn3C)Cc2ccc(N3CCNCC3)nc21` [Example 62, (8S)-8-methyl-6-(1-methylpyrazolo[3,4-b]pyridin-4-yl)-2-piperazin-1-yl-7,8-dihydro-5H-1,6-naphthyridine], the IC50 came out at 5 nM.

Take `CO[C@@H]1CN(c2ccc3c(n2)[C@@H](C)CN(c2cc(C)nc4c2cnn4C)C3)C[C@H]1N` [Example 63, (3R,4R)-4-methoxy-1-[(8S)-6-(1,6-dimethylpyrazolo[3,4-b]pyridin-4-yl)-8-methyl-7,8-dihydro-5H-1,6-naphthyridin-2-yl]pyrrolidin-3-amine]: the IC50 worked out at 5 nM.

`Cc1cc(N2Cc3ccc(OC4CCNCC4)nc3[C@@H](C)C2)c2cnn(C)c2n1` [Example 64, (8S)-6-(1,6-dimethylpyrazolo[3,4-b]pyridin-4-yl)-8-methyl-2-(4-piperidyloxy)-7,8-dihydro-5H-1,6-naphthyridine]: the IC50 is 5 nM.

As for `CO[C@H]1CN(c2ccc3c(n2)[C@@H](C)CN(c2cc(C)nc4c2cnn4C)C3)CC[C@@H]1N` [Example 65, (3S,4S)-3-methoxy-1-[(8S)-6-(1,6-dimethylpyrazolo[3,4-b]pyridin-4-yl)-8-methyl-7,8-dihydro-5H-1,6-naphthyridin-2-yl]piperidin-4-amine], the IC50 came to 6 nM.

Consider `Cc1cc(N2Cc3ccc(N4CCNCC4)nc3[C@@H](C)C2)c2cnn(C)c2n1` [Example 66, (8S)-6-(1,6-dimethylpyrazolo[3,4-b]pyridin-4-yl)-8-methyl-2-piperazin-1-yl-7,8-dihydro-5H-1,6-naphthyridine], for which the IC50 came to 8 nM.

Consider `Cc1cc(N2Cc3ccc(N4CCN(C)CC4)nc3[C@@H](C)C2)c2cnn(C)c2n1` [Example 67, (8S)-6-(1,6-dimethylpyrazolo[3,4-b]pyridin-4-yl)-8-methyl-2-(4-methylpiperazin-1-yl)-7,8-dihydro-5H-1,6-naphthyridine], for which the IC50 worked out at 11 nM.

For the molecule `Cc1cc(N2Cc3ccc(N4CC5(CNCCO5)C4)nc3[C@@H](C)C2)c2cnn(C)c2n1` [Example 68, 2-[(8S)-6-(1,6-dimethylpyrazolo[3,4-b]pyridin-4-yl)-8-methyl-7,8-dihydro-5H-1,6-naphthyridin-2-yl]-5-oxa-2,8-diazaspiro[3.5]nonane], the IC50 stood at 17 nM.

In the case of `Cc1cc(N2Cc3ccc(N4C[C@@H](F)[C@@H](N)C4)nc3[C@@H](C)C2)c2cnn(C)c2n1` [Example 69, (3S,4R)-4-fluoro-1-[(8S)-6-(1,6-dimethylpyrazolo[3,4-b]pyridin-4-yl)-8-methyl-7,8-dihydro-5H-1,6-naphthyridin-2-yl]pyrrolidin-3-amine], the IC50 came to 30 nM.
